The text below walks through data of US20110028400A1, “SULFATED UNSATURATED DISACCHARIDIC CHONDROITIN SULFATE IN CONNECTIVE TISSUE PROTECTION AND REPAIR” (NESTEC S.A., priority 2008, published 2011).

Where a name gives a salt, the structure may show the parent alone.

Data set [1] deals with explants of articular cartilage. In words: IL1β-induced GAG (35S) release from cultured bovine articular cartilage explants. The following applies: for slowing down cytokine-induced cartilage destruction in vitro: comparison among chondroitin disaccharides and higher molecular weight forms. The class given is cell-based. The source says: It was investigated here whether normal commercially available chondroitin sulphate and different low molecular weight forms of chondroitin sulphate including disaccharides could inhibit the degradation of aggrecan in cultured explants of articular cartilage. Explants from healthy bovine articular cartilage were put in culture and loaded with S^35. S^35 is incorporated in the glycosaminoglycan chains of the aggrecan molecules of the cartilage and its release in the media is considered as a surrogate marker of glycosaminoglycan release and aggrecan catabolism. However, explants from healthy bovine articular cartilage naturally display a very low catabolic activity which is not ideal to test the anti-catabolic activity of potential bioactives. To improve the sensitivity of the assay, the explants were cultured in presence of IL1β, a pro-inflammatory cytokine, known to act as a potent inducer of MMP and aggrecanase activities. The different low molecular weight forms of chondroitin sulphate were added to the culture media together with IL1β to see whether they can decrease the IL1β-induced aggrecan catabolism. In addition, the effects of the low molecular weight forms of chondroitin sulphate on IL1β-induced NO production were also investigated. Nitric oxide is a reactive oxygen species known to participate in the progression of osteoarthritis.
The articular cartilage explants were dissected out of the metacarpophalangeal joint of old cows (8-10 years). The skin was removed from the feet. The articulation was opened transversally. Intraarticular ligaments were transected. […] Under the hood, similar quantities of cartilage were distributed between the wells of a 24-wells plate containing 500 μl of medium (DMEM+20% FBS, 1% penicillin/streptomycin, 0.1% gentamycin) per well. […]
The following protocol is based on Campbell et al., Arch Biochem Biophys 234(1): 275-289 and Hascall V C et al., Arch Biochem Biophys 224(1): 206-223. […] After 72 hours, several washes were performed to eliminate the non-incorporated radioactivity. The explants were then treated for 72 hours, after which the supernatants were collected and the amount of radioactivity released in the medium was measured with a beta counter, as a marker of GAG catabolism. The radioactivity present in the explants was also measured and used to normalize the amount of radioactivity released into the media. The radioactivity was expressed in DPM ([…] per minute) and the GAG release is assessed by the following formula:
GAG release=radioactivity in the supernatants/(radioactivity in the supernatants+radioactivity in the explants)

For data set [2], the system named is knee OA. The following applies: cited from earlier work.
Data set [3] concerns knee synovial fluids. The following applies: 10 days of 800 mg once a day; cited from earlier work.
Data set [4] deals with cartilage damages and proteoglycan loss. The following applies: 20 mg/kg body weight/day, 11 days before to 21 days after chymopapain injection; cited from earlier work.
Data set [5] has as its system explants of articular cartilage. In words: IL1β-induced NO production in cultured bovine articular cartilage explants. In kind it is cell-based. The following applies: 500 μg/ml, with 50 ng/ml IL1β, 72 hours, 4 experiments. The source says:
It was investigated here whether normal commercially available chondroitin sulphate and different low molecular weight forms of chondroitin sulphate including disaccharides could inhibit the degradation of aggrecan in cultured explants of articular cartilage. Explants from healthy bovine articular cartilage were put in culture and loaded with S^35. S^35 is incorporated in the glycosaminoglycan chains of the aggrecan molecules of the cartilage and its release in the media is considered as a surrogate marker of glycosaminoglycan release and aggrecan catabolism. However, explants from healthy bovine articular cartilage naturally display a very low catabolic activity which is not ideal to test the anti-catabolic activity of potential bioactives. […]
The articular cartilage explants were dissected out of the metacarpophalangeal joint of old cows (8-10 years). […] Under the hood, similar quantities of cartilage were distributed between the wells of a 24-wells plate containing 500 μl of medium (DMEM+20% FBS, 1% penicillin/streptomycin, 0.1% gentamycin) per well. […]
For NO measurements a protocol based on Gilliam et al., Anal Biochem 212(2): 359-365 was used. […] After ten minutes, absorbance was measured at 538 nm. To quantify the amount of NO in the supernatants, a standard curve was prepared using sodium nitrite (0-60 μM).

Data set [6] in a line: rat intestinal loop model, bioavailability. In kind it is in vivo.
Data set [7] deals with proteoglycan depletion in cartilage. To be noted: 100 and 300 mg/kg body weight/day, starting 2 weeks before bradikinin injections; cited from earlier work.

As to `CC(=O)N[C@H]1C(O)O[C@H](CO)[C@H](OS(=O)(=O)O)[C@@H]1O` (stereo partly shown) [GalNac 4S, 4 sulfated N-acetylgalactosamine], the “IL1β-induced GAG release (percentage of radioactivity release)” value in data set [1] (dose range 500-50-5 μg/ml, with 50 ng/ml IL1β, 72 hours, FIG. 2) was “no effect”.

Regarding Chondroitin sulfate [CS], the “slowing down cytokine-induced cartilage destruction in vitro” value in data set [1] is “did not have any significant effect”. Besides, the “improvement of the Lesquesne index versus diclofenac” value in data set [2] (400 mg of CS 3 times a day, double-blind RCT) is “slower than 50 mg of diclofenac”. Also, the “mean and minimum joint space width and joint space surface area on X-rays” value in data set [2] (800 mg CS, one year double-blind placebo-controlled RCT) is given as “decreased significantly in the placebo group but not in the 800 mg CS group”. In addition, in data set [2] (800 mg once a day, 2-year double-blind RCT, placebo mean joint space loss 0.14 mm), the joint space narrowing entry is listed as “prevented joint space narrowing”. In data set [2] (1000 mg per day, one trial), the function versus placebo result is reported as “did not improve function better than placebo”. Moreover, in data set [2] (3 meta-analyses), the “osteoarthritic symptoms, meta-analyses” value is reported as “superior to placebo”. The “spontaneous pain and mobility versus placebo” value in data set [2] (6 of 7 double-blind placebo-controlled RCTs, 3 to 24 months, knee OA) is recorded as “more efficient than placebo”. For the same compound, in data set [2] (800 and 1200 mg once a day), the “pain and mobility, dose comparison” value was “more effective on pain and mobility than placebo or 200 mg”. In data set [2] (both superior to placebo), the “mobility, 1200 mg once a day versus 400 mg three times a day” value is listed as “No statistical significant difference”. In data set [2] (human, in vivo), the “time before patients detect a significant difference in pain and mobility” value was “at least 2 weeks”; the “time required to reach full symptom relief” value was “up to 2 months”. The “mobility after intermittent treatment” value in data set [2] (two 3 month-long periods in a year, 800 mg once a day) is “lasting effects by improving mobility compared to placebo”. Further, the “persistence of effects after termination of treatment” value in data set [2] (versus diclofenac) was “persisted longer than diclofenac effects”. In data set [3], the “activities of collagenase, phospholipase A2 and N-acetylglucosaminidase in knee synovial fluids” value is “decreasing”; the “viscosity and hyaluronate concentration in knee synovial fluids” value is reported as “significantly increased”. In addition, in data set [4], the “cartilage damages and proteoglycan loss” value was “decreased cartilage damages and proteoglycan loss”.

Regarding `CC(=O)N[C@H]1C(O)O[C@H](CO)[C@H](OS(=O)(=O)O)[C@@H]1O[C@@H]1OC(C(=O)O)=C[C@H](O)[C@H]1O` (stereo partly shown) [Δdi4S, 4-sulfated unsaturated disaccharidic chondroitin sulfate], the “amount of GAG released in the supernatants compared to IL1β alone” value in data set [1] (500 μg/ml, with 50 ng/ml IL1β, 72 hours, 4 independent experiments) is given as “significantly (p<0.05) decreased”. For the same compound, the “slowing down cytokine-induced cartilage destruction in vitro” value in data set [1] was “by far the most effective compound”. Further, in data set [5], the “amount of NO in the supernatants compared to IL1β alone” value was “significantly (p<0.05) decreased”. For the same compound, in data set [6], the bioavailability result is reported as “more bioavailable than regular high molecular weight chondroitin sulfate”.

As for chondroitin-6 sulfate, in data set [7], the “proteoglycan depletion in cartilage” value is on record as “reduced or prevented”.
